Results published in PubChem BioAssay (NCI).
“And” between values parts separate entries of the source, which are not always exact repeats. Equal values may be shown once.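 Cells were grown in 96-well plates and exposed to each compound for 48 hours at five concentrations; endpoints were interpolated linearly between bracketing concentrations, or set to the highest concentration if not reached. GI50 marks 50% less growth. TGI denotes the concentration required for complete inhibition of growth.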

What was measured:
Assay in all cases: NCI tumour cell line growth inhibition, 48 h
DLD-1 colon = test system: DLD-1 colon
DMS 114 small cell lung = test system: DMS 114 small cell lung
LXFL 529 NSCLC = test system: LXFL 529 NSCLC
XF 498 CNS = test system: XF 498 CNS
RXF-631 renal = test system: RXF-631 renal
HS 578T breast = test system: HS 578T breast
MDA-MB-231 breast = test system: MDA-MB-231 breast
MDA-N = test system: MDA-N
P388 leukemia = test system: P388 leukemia
P388/ADR leukemia = test system: P388/ADR leukemia
PC-3 prostate = test system: PC-3 prostate
SN12K1 renal = test system: SN12K1 renal

Structure (SMILES)	TGI (DLD-1 colon)	TGI (DMS 114 small cell lung)	TGI (LXFL 529 NSCLC)	TGI (XF 498 CNS)	TGI (RXF-631 renal)	also measured
COC(=O)[C@H]1[C@H]2C[C@@H]3c4[nH]c5cc(OC)ccc5c4CCN3C[C@H]2C[C@@H](OC(=O)c2cc(OC)c(OC)c(OC)c2)[C@@H]1OC	> 100 µM	40.4 µM	35.7 µM			
CN(C)c1ccc2c(c1)CN1C(=O)c3ccccc3C1=N2	> 100 µM	> 100 µM	> 100 µM	> 100 µM		GI50 (DLD-1 colon): > 100 µM; GI50 (DMS 114 small cell lung): > 100 µM; GI50 (LXFL 529 NSCLC): > 100 µM; GI50 (XF 498 CNS): > 100 µM
COc1ccc(CN2C(=O)C(Cc3cc(OC)c(OC)c(C)c3OC)NC(=O)/C2=C/c2cc(OC)c(OC)c(C)c2OC)cc1 (stereo unspecified)	> 100 µM	97.3 µM	> 100 µM		> 100 µM	
CC1(C)OC(=O)[C@@](C)([C@H](O)c2ccccc2)O1	> 100 µM	> 100 µM	> 100 µM	> 100 µM	> 100 µM	
O=C(c1ccccc1)C(c1ccccc1)C1(O)C(=O)Nc2ccccc21 (stereo unspecified)	> 100 µM	> 100 µM	> 100 µM	> 100 µM	> 100 µM	
CC(C)N(C(=O)C12C3C4C5C3C1(C(=O)N(C(C)C)C(C)C)C5(C#N)C42)C(C)C (stereo unspecified)	66.5 µM	> 100 µM	> 100 µM	> 100 µM	> 100 µM	
CC(C)(C)N/N=C(\Cc1occc(=O)c1O)C(=O)Nc1ccc([N+](=O)[O-])cc1[N+](=O)[O-]		> 100 µM	> 100 µM	> 100 µM	> 100 µM	
CC(=O)OCCOCNC(=S)N/N=C/c1ccc2ccccc2n1	> 100 µM	71.3 µM	> 100 µM	> 100 µM	> 100 µM	
C=C[C@@]1(C)CCC2(O)C(CCC3C2(C)CCC[C@@]3(C)COC(=O)CC(=O)OC)C1 (stereo partly specified)	32.1 µM		33 µM	40.6 µM	38.2 µM	
Nc1ncnc2c1ncn2C1OC(CSC(F)(F)F)C(O)C1O (stereo unspecified)	> 100 µM	> 100 µM	> 100 µM			
COc1ccc(C2=Nc3ccccc3SC(C)C2)cc1 (stereo unspecified)	> 100 µM	> 100 µM	> 100 µM		> 100 µM	
CN1C(OCc2ccccc2)c2c(ccc3c2OCO3)C2C=Cc3cc4c(cc3C21)OCO4 (stereo unspecified)	1.65 µM	0.854 µM	1.37 µM		2.09 µM	
CCOC(=O)c1cc(/C=C/C(C)=C/C(=O)OC)oc1-c1ccccc1	> 100 µM	> 100 µM		> 100 µM		
N#CNC(N)=NCCO	> 100 µM	> 100 µM	> 100 µM	> 100 µM	> 100 µM	
Cc1ccc(C2CC(c3ccc([N+](=O)[O-])cc3)=Nc3ccccc3S2)cc1 (stereo unspecified)	85.5 µM	59 µM	37.5 µM	55.7 µM	> 100 µM	
O=C1c2cccc3cc([N+](=O)[O-])cc(c23)C(=O)N1NC1=NCCN1	> 100 µM	> 100 µM	> 100 µM	> 100 µM	> 100 µM	
C=CCC1C(=O)C(C(=O)OC)N2CCc3c([nH]c4ccccc34)C12 (stereo unspecified)	> 100 µM	> 100 µM	> 100 µM			
CCCN(CCCN)/[N+]([O-])=N\O	> 100 µM	> 100 µM	> 100 µM		> 100 µM	

Structure (SMILES)	TGI (DLD-1 colon)	TGI (DMS 114 small cell lung)	TGI (LXFL 529 NSCLC)	TGI (XF 498 CNS)	TGI (RXF-631 renal)	also measured
COC(=O)C1CC(=O)CCC1c1ccccc1 (stereo unspecified)	> 100 µM	> 100 µM	> 100 µM			
O=C(O)C1CCc2nnc(-c3ccccc3)n21 (stereo unspecified)	> 100 µM	> 100 µM	> 100 µM		> 100 µM	
Cc1ccc(NC(=O)CC/C(CC(=O)C(C)(C)C)=N/NC(=O)C(N)=O)cc1C	> 100 µM	> 100 µM	> 100 µM	> 100 µM	> 100 µM	
CCC1=C(C)/C(=C/c2[nH]c(C(Br)Br)c(CC)c2C)N=C1C(Br)Br	> 100 µM	88.6 µM	> 100 µM			
NC(N)=NS(=O)(=O)c1ccc(Nc2c3ccccc3nc3c(C(=O)N4CCN(CCO)CC4)cccc23)cc1	> 100 µM	> 100 µM	> 100 µM	> 100 µM		
Cc1nc2ccccc2c(=O)n1/N=C(\N=Nc1cc(Cl)ccc1Cl)c1cccc(-c2ccco2)c1	> 100 µM	> 100 µM			> 100 µM	
C[C@@H](C1CCC2C3C(=CC(=O)[C@@]21C)[C@H](C)[C@]1(CCC(=O)O1)C1OC31)[C@H]1C[C@]2(C)O[C@@](C)(O1)OC2(C)C (stereo partly specified)	> 100 µM	> 100 µM	> 100 µM	> 100 µM	> 100 µM	
N=CCCN(CCC=N)c1ccc(/C=C2\CN(NC(=O)c3ccc(Cl)cc3)C(c3ccccc3)=N2)cc1	> 100 µM	> 100 µM	> 100 µM		> 100 µM	
[C-]#[O+].[Cl][Sn]([Cl])[Cl].[Cl][Sn]([Cl])[Cl].[Pt].c1ccc([PH+](c2ccccc2)c2ccccc2)cc1.c1ccc([PH+](c2ccccc2)c2ccccc2)cc1	> 100 µM	51.2 µM	82.1 µM			GI50 (DLD-1 colon): 45.5 µM; GI50 (DMS 114 small cell lung): 21.8 µM; GI50 (LXFL 529 NSCLC): 23.2 µM
COc1cc(=O)oc(/C=C/C=O)c1C	34.3 µM	26.3 µM	32.4 µM	32.4 µM	27.9 µM	
C/C=C(\C)c1cc(=O)c2c(C)cc3c(c2o1)C(=O)c1c(O)c(C2CC(C)(N(C)C)C(O)C(C)O2)cc(C2CC(N(C)C)C(O)C(C)O2)c1C3=O (stereo unspecified)	> 35.2 µM	4.45 µM				TGI (HS 578T breast): 0.517 µM; TGI (MDA-MB-231 breast): 0.764 µM; TGI (MDA-N): 0.46 µM; TGI (P388 leukemia): 5.36 µM; TGI (P388/ADR leukemia): 67.9 µM; TGI (PC-3 prostate): 1.42 µM; TGI (SN12K1 renal): 2.52 µM
Cc1cc(=O)n(-c2ccccc2)c(=O)o1	> 100 µM	> 100 µM	> 100 µM			
O=C(CC(=O)c1ccc([N+](=O)[O-])cc1)C(=O)Nc1nccs1	> 100 µM	> 100 µM	> 100 µM	> 100 µM	> 100 µM	
CC1=CCC2(C#N)CCC1C2O (stereo unspecified)	> 100 µM	> 100 µM	> 100 µM	> 100 µM		
CC1(C)C(c2ccccc2)C12CCC1(C2=O)C(c2ccccc2)C1(C)C (stereo unspecified)		34.9 µM	> 100 µM	36.1 µM		
NC(C/[N+]([O-])=N/O)C(=O)O (stereo unspecified)	> 500 µM	10.9 µM		40.1 µM		TGI (HS 578T breast): > 225 µM; TGI (MDA-MB-231 breast): > 500 µM; TGI (MDA-N): > 500 µM; TGI (P388 leukemia): 337 µM; TGI (P388/ADR leukemia): 336 µM; GI50 (PC-3 prostate): 6.71 µM and 3.64 µM and 4.92 µM; TGI (PC-3 prostate): > 500 µM; TGI (SN12K1 renal): 257 µM
O=S1CSCS1 (stereo unspecified)	> 100 µM	> 100 µM	> 100 µM	> 100 µM	> 100 µM	
